The record followed here is patent publication US20100255127A1, “AROMATASE INHIBITOR” (KRACIE PHARMA, LTD., priority 2007, published 2010).

The target of the assay is T1, aromatase (CYP19) (Homo sapiens, UniProt P11511).
T1 construct: purchased BD Biosciences Inc. (U.S.A.)
T1 sequence (P11511 1-503): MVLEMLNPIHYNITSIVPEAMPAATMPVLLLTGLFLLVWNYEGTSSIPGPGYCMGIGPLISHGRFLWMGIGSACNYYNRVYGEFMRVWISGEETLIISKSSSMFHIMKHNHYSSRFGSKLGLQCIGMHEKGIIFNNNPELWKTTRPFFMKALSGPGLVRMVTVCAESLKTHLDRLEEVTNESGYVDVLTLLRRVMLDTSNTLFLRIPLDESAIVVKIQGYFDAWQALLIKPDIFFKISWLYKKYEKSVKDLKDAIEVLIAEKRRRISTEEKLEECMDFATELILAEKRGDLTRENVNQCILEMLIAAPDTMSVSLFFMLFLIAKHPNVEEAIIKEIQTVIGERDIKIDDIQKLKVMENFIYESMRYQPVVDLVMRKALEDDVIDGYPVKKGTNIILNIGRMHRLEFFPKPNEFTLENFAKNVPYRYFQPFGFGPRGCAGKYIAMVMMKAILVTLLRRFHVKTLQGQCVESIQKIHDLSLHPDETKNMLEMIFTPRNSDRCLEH
The assay is described as follows: Measurement of aromatase-inhibitory activity (fluorometric HFC formation, 96-well microplate, BD Biosciences reagents). In kind it is biochemical. Conditions: for inhibition at 0.18 µM: concentration 0.18 μM; for inhibition at 0.18 µM / inhibition at 0.53 µM / inhibition at 1.6 µM / inhibition at 4.8 µM: average of three experiments, read-out: Inhibitory rate; for inhibition at 0.53 µM: concentration 0.53 μM; for inhibition at 1.6 µM: concentration 1.60 μM; for inhibition at 4.8 µM: concentration 4.80 μM; for IC50: text b76, components. On the procedure:
That is, by using a 96-well microplate, after 144 μL of a previously prepared NADPH-producing system solution (NADPH-Cofactor Mix) and 6 μL of an extract solution of test samples were mixed, and incubated at 37° C. for 10 minutes. Then, 100 μL of a solution (Enzyme Substrate Mix) containing an enzyme and a substrate was mixed with the above mixture, and reacted at 37° C. for 30 minutes. Thereafter, 75 μL of a reaction-terminating solution was added to the above, and an amount of a formed HFC (7-hydroxy-4-trifluoromethyl coumarin) which is a metabolite of the substrate was obtained by measuring a fluorescent intensity at an excitation wavelength of 409 nm and a fluorescent wavelength of 538 nm using a plate reader ([…]luor, TECAN). Incidentally, 75 μL of stop solution was added to a blank after incubation for 10 minutes, in place of adding the solution of enzyme and substrate. Aromatase inhibitory rate was calculated by the formula 1.
Aromatase inhibitory rate (%)={1−[…]}×100 [Numerical formula 1]
A=(Absorbance after enzymatic reaction without test sample−Absorbance of blank thereof) B=(Absorbance after enzymatic reaction with each test sample−Absorbance of each blank thereof)
Also, to avoid a non-specific inhibitory action (for example, protein coagulation action due to tannin), a control protein which incidents to the reagent was added to the NADPH-producing system solution.
With regard to solution of test sample, the concentration was stepwisely diluted and an inhibitory rate at each concentration was obtained, and from the results, the concentration of 50% inhibition (IC50 value) was obtained according to the interpolation method.

For orientation: IC50 means the concentration that gives 50% inhibition. As to `COc1ccc(-c2oc3c(CC=C(C)C)c(O[C@@H]4O[C@H](CO)[C@@H](O)[C@H](O)[C@H]4O)cc(O)c3c(=O)c2O[C@@H]2O[C@@H](C)[C@H](O)[C@@H](O)[C@H]2O)cc1` [Icariin, icariin], the inhibition at 0.18 µM is 30.4 ± 1.5%, the inhibition at 0.53 µM is 48.1 ± 6.9%, the inhibition at 1.6 µM worked out at 63.5 ± 12.6% and the inhibition at 4.8 µM worked out at 67.7 ± 21.3%. It took 754 nM to reach half-maximal inhibition (IC50).
With `COc1cc(C2Oc3cc(C4Oc5cc(O)cc(O)c5C(=O)C4O)ccc3OC2CO)ccc1O` (centres unmarked) [Silybin, silybin], the “aromatase-inhibitory activity, concentration dependency in words” value is on record as “concentration-dependent inhibitory activity”; the inhibition at 0.18 µM stood at 8.7 ± 9.3%; the inhibition at 0.53 µM was found to be 12.4 ± 4.6%; the inhibition at 1.6 µM turned out to be 20.6 ± 1.2%. Besides, the inhibition at 4.8 µM was 59.4 ± 7.1% and inhibition was half-maximal at 4860 nM (IC50).
